These compounds were tested against T1, human α-synuclein (Homo sapiens, UniProt P37840) (assay: In vitro Thioflavin T assay of α-synuclein aggregation). Conditions: compounds at 50 μM.
T1 construct: made in house; host or cells: E. coli
Assay type: biochemical
Method: In Vitro Thioflavin T Assay to Determine the Effects of Compounds on α-Synuclein Aggregation.
The ammonium sulfate pellet was washed with an equal volume of 100 mM ammonium acetate in ethanol, pelleted via centrifugation, washed twice with ethanol, dried overnight, resuspended in 10 mM Tris pH 7.4, and passed through a 50 kDa cut-off column. The assay was conducted in 96-well black microplates with a single 2 mm bead in each well, 40 μM ThioflavinT, 1% DMSO, 50 μM α-synuclein, 100 mM sodium chloride, 9.3 mM potassium phosphate pH 7.3, 4.6 mM Tris pH 7.4 (added as the solvent for α-synuclein or independently for controls lacking α-synuclein), and compounds at 1 μM or 50 μM. […] Readings were performed hourly for up to 73 hours. The effect of compounds on α-synuclein aggregation in the assay was determined with data from 40 hours, following the plateau of the fluorescent signal in the untreated (no compound) control wells containing α-synuclein. Fluorescence values for each compound with α-synuclein were first adjusted by subtracting the average fluorescence of the compound in the absence of α-synuclein.

SMILES | Effect on α-synuclein aggregation (in words)
COc1ccccc1O [guaiacol, 2-methoxyphenol] | without notable inhibition
C=CCc1ccc(OC)c(OC)c1 [4-allyl-1,2-dimethoxy-benzene, 4-allyl-1,2-dimethoxybenzene] | without notable inhibition
C/C=C/c1ccc(O)c(OC)c1 [isoeugenol, 2-methoxy-4-(prop-1-en-1-yl)phenol] | without notable inhibition

Same assay, conditions: compounds at 50 μM; 50 μM α-synuclein; ThT fluorescence at 40 hours; read-out: Inhibition of Aggregation αSyn

SMILES | inhibition at 50 µM [%]
COc1ccccc1O [guaiacol, 2-methoxyphenol] | -2
C/C=C/c1ccc(O)c(OC)c1 [isoeugenol, 2-methoxy-4-(prop-1-en-1-yl)phenol] | 9

Same assay, conditions: compounds at 50 μM; 50 μM α-synuclein; ThT fluorescence at 40 hours; read-out: Inhibition of Aggregation αSyn (compound activity range)

SMILES | inhibition at 50 µM [%]
COc1ccccc1O [guaiacol, 2-methoxyphenol] | -10 to 10
C/C=C/c1ccc(O)c(OC)c1 [isoeugenol, 2-methoxy-4-(prop-1-en-1-yl)phenol] | -10 to 10

Same assay, conditions: read-out: Inhibition of Aggregation αSyn

SMILES | inhibition at 50 µM [%]
C=CCc1ccc(OC)c(OC)c1 [4-allyl-1,2-dimethoxy-benzene, 4-allyl-1,2-dimethoxybenzene] | 5
Cc1ccc(C(C)C)c(O)c1 [thymol, 5-methyl-2-(propan-2-yl)phenol] | -21

Same assay, conditions: read-out: Inhibition of Aggregation αSyn (compound activity range)

SMILES | inhibition at 50 µM [%]
C=CCc1ccc(OC)c(OC)c1 [4-allyl-1,2-dimethoxy-benzene, 4-allyl-1,2-dimethoxybenzene] | -10 to 10
Cc1ccc(C(C)C)c(O)c1 [thymol, 5-methyl-2-(propan-2-yl)phenol] | < -10

The compounds below were run against T2, α-synuclein seeded by E. coli CsgA (Homo sapiens, UniProt P37840) (assay: In vitro Thioflavin T assay of CsgA-seeded α-synuclein aggregation). Conditions: compounds at 50 μM.
T2 construct: made in house; host or cells: E. coli NEB 3016 slyD::kan (CsgA, pET11d); E. coli (α-synuclein)
Assay type: biochemical
Method: In Vitro Thioflavin T Assay to Determine the Effects of Compounds on CsgA-Seeded α-Synuclein Aggregation.
To induce over-expression of CsgA, 0.5 mM IPTG was added to cultures with an optical density at 600 nm (OD600) of 0.8-1, and induced cells were cultured at 37° C. for 1 hour prior to harvest via centrifugation. […] Buffers with imidazole were freshly prepared prior to the protein purification. Purified CsgA was passed through a 30 kDa molecular weight cut-off filter and through a desalting column. All steps of the CsgA purification in the absence of guanidine hydrochloride were conducted in rapid succession with as little delay as possible. […] The ammonium sulfate pellet was washed with an equal volume of 100 mM ammonium acetate in ethanol, pelleted via centrifugation, washed twice with ethanol, dried overnight, resuspended in 10 mM Tris pH 7.4, and passed through a 50 kDa cut-off column. The assay was conducted in 96-well black microplates with a single glass 2 mm bead per well, 40 μM ThioflavinT, 1% DMSO, 2 μM CsgA, 50 μM α-synuclein, 100 mM sodium chloride, 9.3 mM potassium phosphate pH 7.3, and compounds at 50 μM. […] The effect of compounds on CsgA-seeded α-synuclein aggregation in the assay was determined with data from 40 hours, following the plateau of the fluorescent signal in the untreated (no compound) control wells containing CsgA and α-synuclein. Fluorescence values for each compound with CsgA and α-synuclein were first adjusted by subtracting the average fluorescence of the compound in the absence of CsgA and α-synuclein.

SMILES | Effect on CsgA-seeded α-synuclein aggregation (in words)
COc1ccccc1O [guaiacol, 2-methoxyphenol] | demonstrated inhibition
C=CCc1ccc(OC)c(OC)c1 [4-allyl-1,2-dimethoxy-benzene, 4-allyl-1,2-dimethoxybenzene] | demonstrated inhibition
C/C=C/c1ccc(O)c(OC)c1 [isoeugenol, 2-methoxy-4-(prop-1-en-1-yl)phenol] | demonstrated inhibition
Cc1ccc(C(C)C)c(O)c1 [thymol, 5-methyl-2-(propan-2-yl)phenol] | little to no effect

Same assay, conditions: compounds at 50 μM; 2 μM CsgA, 50 μM α-synuclein; ThT fluorescence at 40 hours; read-out: Inhibition of Aggregation CsgA-seeded αSyn

SMILES | inhibition at 50 µM [%]
COc1ccccc1O [guaiacol, 2-methoxyphenol] | 40
C=CCc1ccc(OC)c(OC)c1 [4-allyl-1,2-dimethoxy-benzene, 4-allyl-1,2-dimethoxybenzene] | 36
C/C=C/c1ccc(O)c(OC)c1 [isoeugenol, 2-methoxy-4-(prop-1-en-1-yl)phenol] | 35
Cc1ccc(C(C)C)c(O)c1 [thymol, 5-methyl-2-(propan-2-yl)phenol] | 9

Same assay, conditions: compounds at 50 μM; 2 μM CsgA, 50 μM α-synuclein; ThT fluorescence at 40 hours; read-out: Inhibition of Aggregation CsgA-seeded αSyn (compound activity range)

SMILES | inhibition at 50 µM [%]
COc1ccccc1O [guaiacol, 2-methoxyphenol] | 30 to 60
C=CCc1ccc(OC)c(OC)c1 [4-allyl-1,2-dimethoxy-benzene, 4-allyl-1,2-dimethoxybenzene] | 30 to 60
C/C=C/c1ccc(O)c(OC)c1 [isoeugenol, 2-methoxy-4-(prop-1-en-1-yl)phenol] | 30 to 60
Cc1ccc(C(C)C)c(O)c1 [thymol, 5-methyl-2-(propan-2-yl)phenol] | -10 to 10

What follows are compounds tested against T3, E. coli CsgA (Escherichia coli, UniProt P28307) (assay: In vitro ThioflavinT assay of CsgA aggregation). Conditions: compounds at 20 μM.
T3 construct: made in house; host or cells: E. coli NEB 3016 slyD::kan, pET11d
T3 sequence (P28307 23-151): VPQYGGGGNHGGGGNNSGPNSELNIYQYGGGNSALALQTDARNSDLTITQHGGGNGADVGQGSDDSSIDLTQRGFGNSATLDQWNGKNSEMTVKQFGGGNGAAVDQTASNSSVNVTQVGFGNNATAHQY
Assay type: biochemical
Method: In Vitro ThioflavinT Assay to Determine Effects of Compounds on CsgA Aggregation.
To assess the effects of compounds on aggregation of E. coli CsgA, a cell-free assay was performed using purified CsgA and Thioflavin T. In the assay, histidine-tagged CsgA was over-expressed in E. coli NEB 3016 slyD::kan cells harboring a pET11d vector containing csgA with the sequence for 6 histidine residues added to the C-terminus and without the Sec signal (amino acid 1-22) sequence. To induce over-expression of CsgA, 0.5 mM isopropyl β-D-1-thiogalactopyranoside (“IPTG”) was added to cultures with an optical density at 600 nm (OD600) of 0.8-1, and induced cells were cultured at 37° C. for 1 hour prior to harvest via centrifugation. Cells were lysed under denaturing conditions with 8 M guanidine hydrochloride in 50 mM potassium phosphate buffer pH 7.3, and CsgA was purified via immobilized-metal affinity chromatography by batch purification with Nickel-NTA agarose and a combination of low pressure and gravity flow through a disposable polypropylene column, including washes under low pressure applied manually via application of a syringe plunger to the column with 50 mM potassium phosphate buffer pH 7.3 followed by 12.5 mM imidazole in 50 mM potassium phosphate buffer pH 7.3, and elution by gravity flow with 125 mM imidazole in 50 mM potassium phosphate buffer pH 7.3. Buffers with imidazole were freshly prepared prior to the protein purification. Purified CsgA was passed through a 30 kDa molecular weight cut-off filter and passed through a desalting column. All steps of the CsgA purification in the absence of guanidine hydrochloride were conducted in rapid succession with as little delay as possible. The assay was conducted in 96-well black microplates with 40 μM ThioflavinT, 1% DMSO, CsgA at 20 μM, and compounds at 20 μM. Plates were incubated at 25° C. in a Tecan Nano F200 plate reader with excitation at 438 nm using a 439 nm filter with a bandwidth of 8 nm, and emission at 495 nm with a 490 nm filter with a bandwidth of 10 nm. During the assay, plates were shaken initially for 5 seconds and subsequently for 3 seconds prior to fluorescent readings. Readings were performed every 20 minutes for up to 24 hours. The effect of compounds on CsgA aggregation in the assay was determined with data from 18 hours, following the plateau of the fluorescent signal in the untreated (no compound) control wells containing CsgA. Fluorescence values for each compound with CsgA were first adjusted by subtracting the average fluorescence of the compound in the absence of CsgA. These adjusted values were normalized by dividing them by the average fluorescence in the no-compound (i.e., untreated) control wells containing CsgA […], and the average normalized fluorescence with the compound was expressed as a percentage of the average fluorescence observed in untreated controls.

SMILES | Effect on CsgA aggregation (in words)
COc1ccccc1O [guaiacol, 2-methoxyphenol] | without notable inhibition
C=CCc1ccc(OC)c(OC)c1 [4-allyl-1,2-dimethoxy-benzene, 4-allyl-1,2-dimethoxybenzene] | without notable inhibition
C/C=C/c1ccc(O)c(OC)c1 [isoeugenol, 2-methoxy-4-(prop-1-en-1-yl)phenol] | without notable inhibition
Cc1ccc(C(C)C)c(O)c1 [thymol, 5-methyl-2-(propan-2-yl)phenol] | little to no effect

Same assay, conditions: read-out: Inhibition of Aggregation CsgA (compound activity range), compounds at 20 μM; CsgA at 20 μM; ThT fluorescence at 18 hours

SMILES | inhibition at 20 µM [%]
COc1ccccc1O [guaiacol, 2-methoxyphenol] | -10 to 10
C=CCc1ccc(OC)c(OC)c1 [4-allyl-1,2-dimethoxy-benzene, 4-allyl-1,2-dimethoxybenzene] | < -10
C/C=C/c1ccc(O)c(OC)c1 [isoeugenol, 2-methoxy-4-(prop-1-en-1-yl)phenol] | -10 to 10
Cc1ccc(C(C)C)c(O)c1 [thymol, 5-methyl-2-(propan-2-yl)phenol] | -10 to 10

Same assay, conditions: read-out: Inhibition of Aggregation CsgA, compounds at 20 μM; CsgA at 20 μM; ThT fluorescence at 18 hours

SMILES | inhibition at 20 µM [%]
COc1ccccc1O [guaiacol, 2-methoxyphenol] | -5
C=CCc1ccc(OC)c(OC)c1 [4-allyl-1,2-dimethoxy-benzene, 4-allyl-1,2-dimethoxybenzene] | -18
C/C=C/c1ccc(O)c(OC)c1 [isoeugenol, 2-methoxy-4-(prop-1-en-1-yl)phenol] | -4
Cc1ccc(C(C)C)c(O)c1 [thymol, 5-methyl-2-(propan-2-yl)phenol] | -4
